Assay results published in ChEMBL document CHEMBL1144987, “Synthesis and In vivo anti-inflammatory activity of long-chain 2-amino-alcohols” (2003).

Tests used:
Assay type in all cases: functional
[1] = system: Rattus norvegicus; test: Analgesic activity in rats by acetic acid writhing test at a dose of 0.017 mmol/kg
[2] = system: Rattus norvegicus; test: In vivo antiinflammatory activity by rat carrageenan-induced paw edema assay
[3] = system: Rattus norvegicus; test: Analgesic activity in rats by acetic acid writhing test at a dose of 0.010 mmol/kg

Row | Structure (SMILES) | Analgesic activity [1] [%] | ED50 [2] [µmol/kg] | Analgesic activity [3] [%]
1 | CCCCCCCCCCCCCC[C@H](N)CO.Cl | 89.2 | 17 | 
2 | CCCCCCCC/C=C/CCCCCC[C@H](N)CO.Cl |  | 10 | 88.1
3 | CCCCCCCCCCCCOC[C@@H](N)CO.Cl |  | 10 | 95.6
4 | COc1ccc2c(c1)c(CC(=O)O)c(C)n2C(=O)c1ccc(Cl)cc1 [INDOMETHACIN] | 47 | 11 | 
5 | CCCCCCCCCCCCCC[C@@H](N)CO.Cl | 72.6 | 17 | 
